According to patent US20240168030A1, “DIRECT FLUORESCENT GLYCAN LABELING” (BIO-TECHNE CORPORATION, priority 2019, published 2024):

Legend:
FUT2 = molecular target: T1, FUT2 (Homo sapiens, UniProt Q10981); test: Fluorescent labeling with fluorophore-conjugated fucose by FUT2; format: biochemical; set-up: key to Tolerance of the fluorophore by FUT2: +++: indicated by number of + signs; ++: indicated by number of + signs; indicated by number of + signs; conditions: for Tolerance of the fluorophore by FUT2: fluorophore-conjugated fucose donor, acceptor terminal Gal of lactosamine, fluorescent intensity of labeled fetuin or asialofetuin in FIG. 9
T1 construct: purchased Bio-Techne (Minneapolis, MN)
T1 sequence (Q10981 1-343): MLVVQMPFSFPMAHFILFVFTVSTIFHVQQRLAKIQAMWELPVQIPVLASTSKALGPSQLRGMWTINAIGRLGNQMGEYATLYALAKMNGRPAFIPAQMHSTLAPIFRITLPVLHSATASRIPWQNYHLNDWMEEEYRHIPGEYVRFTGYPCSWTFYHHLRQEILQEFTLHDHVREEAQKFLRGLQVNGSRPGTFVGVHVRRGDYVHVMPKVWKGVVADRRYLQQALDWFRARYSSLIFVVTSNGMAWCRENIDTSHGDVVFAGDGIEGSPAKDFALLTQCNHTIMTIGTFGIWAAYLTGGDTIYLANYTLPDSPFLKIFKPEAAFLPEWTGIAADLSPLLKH
Method: (§1) FIG. 9A-FIG. 9B show exemplary results of probing substrate glycans of various fucosyltransferases on fetuin and asialofetuin. FIG. 9A. Probing substrate glycans of fucosyltransferases with guanosine 5′-diphosphate activated Cy5 conjugated fucose (GDP-Cy5-Fuc). […] FUT9 labeled itself (indicated by an arrow in the gel). FIG. 9B. Tolerance of Alexa-Fluor®555 (555), Alexa-Fluor®488 (488), and Cy5 by the indicated fucosyltransferases. All reactions were incubated at 37° C. for 30 minutes and then separated on SDS-PAGE and imaged with silver staining (upper panels) and fluorescent imager (lower panels). M, molecular marker.
(§2) For a typical labeling reaction, 1 μg to 5 μg target protein was mixed with 0.2 nmol GDP-f-Fuc and 0.2 μg of a fucosyltransferase in 30 μL buffer of 25 mM Tris pH 7.5, 10 mM MnCl2. The mixture was incubated at 37° C. for 30 minutes. The reaction was then separated by sodium dodecyl sulfate—polyacrylamide gel electrophoresis (SDS-PAGE) and the gel was directly imaged using a fluorescent imager FluorChem M ProteinSimple, Bio-Techne, Minneapolis, MN), followed by imaging with traditional protein imaging methods such as silver staining or trichloroethanol (TCE) staining.
(§3) The four enzymes tolerated the three fluorophores to different levels.

FUT9 = molecular target: T2, FUT9 (Homo sapiens, UniProt Q9Y231); test: Fluorescent labeling with fluorophore-conjugated fucose by FUT9; format: biochemical; set-up: key to Tolerance of the fluorophore by FUT9: +++: indicated by number of + signs; ++: indicated by number of + signs; indicated by number of + signs; conditions: for Tolerance of the fluorophore by FUT9: fluorophore-conjugated fucose donor, acceptor GlcNAc of lactosamine, FIG. 9
T2 construct: purchased Bio-Techne (Minneapolis, MN)
T2 sequence (Q9Y231 1-359): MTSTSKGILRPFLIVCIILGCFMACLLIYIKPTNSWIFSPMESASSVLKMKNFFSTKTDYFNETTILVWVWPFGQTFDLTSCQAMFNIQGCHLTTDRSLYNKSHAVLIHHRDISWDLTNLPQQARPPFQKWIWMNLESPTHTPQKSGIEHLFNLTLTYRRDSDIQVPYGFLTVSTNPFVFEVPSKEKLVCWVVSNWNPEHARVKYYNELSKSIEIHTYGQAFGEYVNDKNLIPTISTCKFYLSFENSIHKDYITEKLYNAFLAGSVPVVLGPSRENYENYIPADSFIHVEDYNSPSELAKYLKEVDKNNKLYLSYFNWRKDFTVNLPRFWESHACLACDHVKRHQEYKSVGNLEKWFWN
Method: as §1
FIG. 10A-FIG. 10D show exemplary results of probing core-6 fucosylation on antibodies by FUT8 incorporation of fluorophores. FIG. 10A. Results of probing substrate glycans of FUT8 (F8) and FUT9 (F9) on Cantuzumab, an anti-Muc1 therapeutic antibody, and NIST reference mAb 8671 using guanosine 5′-diphosphate activated Alexa-Fluor®555 conjugated fucose (GDP-AF555-Fuc) (555), GDP-Cy5-fucose (Cy5), and guanosine 5′-diphosphate activated Alexa-Fluor®488 conjugated fucose (GDP-AF488-Fuc) (488) as donor substrates. Cantuzumab was expressed in FUT8 knockout cells and is devoid of core-6 fucose. Molecular marker (MM) is a prestained Western molecular marker (Bio-Rad Laboratories, Hercules, CA). […] The product of each reaction was separated using SDS-PAGE and imaged with trichloroethanol (TCE) staining (upper panel) and fluorescent imager (lower panel). Labeling on the light chains of the antibodies by Alexa-Fluor®555 is likely the result of non-specific staining due to the use of unpurified GDP-AF555-Fuc that contained free Alexa-Fluor®555. FIG. 10B. […] FIG. 10C. […] FIG. 10D. Schematics of the glycan structures analyzed in FIG. 10B and FIG. 10C.
Mouse IgG (R&D Systems, Minneapolis, MN) was digested with Endo S thoroughly and labeled with 0.3 μg of FUT9 and 0.2 nmol of GDP-Cy5-Fuc in 30 μl at 37° C. for the indicated time points. The glycans were also pretreated with B4GalT2 for 5 minutes at 37° C. and then labeled in the same way. The reactions were separated on 15% SDS PAGE. B4GalT2 pretreatment converted all G1′ to G2′. Maximal labeling on G1′ and G2′ were achieved around 30 minutes. […] The heavy chain (HC) and light chain (LC) were visible in the TCE image. M, Western blot marker (Bio-Rad Laboratories, Hercules, CA).
as §2, §3

[1] = among Cy5-, AlexaFluor® 488-, and AlexaFluor® 555-conjugated fucoses, FIG. 9B

Substance | Tolerance of the fluorophore by FUT2 (FUT2) | Tolerance of the fluorophore by FUT9 (FUT9) | Fluorophore preference of FUT2 (FUT2; [1]) | Fluorophore preference of FUT9 (FUT9; [1])
guanosine 5′-diphosphate activated Alexa-Fluor®488 conjugated fucose [GDP-AF488-Fuc] | + | +++ | – | –
guanosine 5′-diphosphate activated Alexa-Fluor®555 conjugated fucose [GDP-AF555-Fuc] | +++ | +++ | preferred | preferred
